According to the supplement of paper PMC11208160:
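Also: IS621 recombinase and bridge RNA in Escherichia coli cells.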

Test: recombinant barcode read abundance after kanamycin selection (control-corrected) (log10(CPM+1)); higher = more efficient recombination; sequences stand for … in AGTGCAGAGAAAATCGGCCAGTTTTCTCTGCCTGCAGTCCGCATGCCGT…AGATTTATGCAGCGGACTGCCTTTCTCCCAAAGTGATAAACCGGACAGTATCATGGACCGGTTTTCCCGGTAATCCGTATTTGCAAGGTTGGTTTCACT; site = the 11-nt target
Summary of the method: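 IS621 bridge RNA target-binding loops were paired with targets in a pooled library tested in E. coli. After co-electroporation with a donor plasmid, cells were plated in two replicates on chloramphenicol/ampicillin LB agar (control) and on chloramphenicol/ampicillin/kanamycin carrying 0.1 mM IPTG. Barcodes at recombinant junctions were counted as counts per million, averaged and control-corrected to give recombination efficiency. Values are log10(CPM+1).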
With “GTATCGTCTTGGGTTCTAACCTGTTGCCT (site GTATCGTCTAG)” the “recombinant barcode read abundance (log10)” value was 1.69.
In the case of “GTATCGTCTTGGGTTCTAACCTGTTGCCT (site GTATGGTCTAC)”, the “recombinant barcode read abundance (log10)” value is reported as 0.111.
In the case of “GTATCTACTTGGGTTCTAACCTGTTGCCT (site GAATCTACTAG)”, the “recombinant barcode read abundance (log10)” value is reported as 0.
For “GTATCTACTTGGGTTCTAACCTGTTGCCT (site GCATCTACTAG)”, the “recombinant barcode read abundance (log10)” value was 0.0197.
In the case of “GTATCTACTTGGGTTCTAACCTGTTGCCT (site GGATCTACTAG)”, the “recombinant barcode read abundance (log10)” value is reported as 0.25.
In the case of “GTATCTACTTGGGTTCTAACCTGTTGCCT (site GTATCTACTAG)”, the “recombinant barcode read abundance (log10)” value is reported as 0.069.
In the case of “GTATGCCCTTGGGTTCTAACCTGTTGCTA (site GTATCCACTTA)”, the “recombinant barcode read abundance (log10)” value is reported as 0.273.
With “GTATGCCCTTGGGTTCTAACCTGTTGCTA (site GTATGCCCTTA)” the “recombinant barcode read abundance (log10)” value was 1.12.
For “GTATTAGCTTGGGTTCTAACCTGTTGCCG (site GAATTAGCTCC)”, the “recombinant barcode read abundance (log10)” value was 0.128.
In the case of “GTATTAGCTTGGGTTCTAACCTGTTGCCG (site GTATTAGCTCG)”, the “recombinant barcode read abundance (log10)” value is reported as 1.44.
In the case of “GTCAAACCTTGGGTTCTAACCTGTTGCTG (site GTCAAACCTCA)”, the “recombinant barcode read abundance (log10)” value is reported as 0.974.
In the case of “GTCAAACCTTGGGTTCTAACCTGTTGCTG (site GTCAACCCTCA)”, the “recombinant barcode read abundance (log10)” value is reported as 0.232.
With “GTCAAACCTTGGGTTCTAACCTGTTGCTG (site GTCAAGCCTCA)” the “recombinant barcode read abundance (log10)” value was 0.0163.
With “GTCAAACCTTGGGTTCTAACCTGTTGCTG (site GTCAATCCTCA)” the “recombinant barcode read abundance (log10)” value was 0.0782.
For “GTCAAGCCTTGGGTTCTAACCTGTTGCTG (site GTCAAACCTCA)”, the “recombinant barcode read abundance (log10)” value was 0.0753.
With “GTCAAGCCTTGGGTTCTAACCTGTTGCTG (site GTCAACCCTCA)” the “recombinant barcode read abundance (log10)” value was 0.184.
With “GTCAAGCCTTGGGTTCTAACCTGTTGCTG (site GTCAAGCCTCA)” the “recombinant barcode read abundance (log10)” value was 1.23.
With “GTCAAGCCTTGGGTTCTAACCTGTTGCTG (site GTCAATCCTCA)” the “recombinant barcode read abundance (log10)” value was 0.0295.
For “GTCAAGTCTTGGGTTCTAACCTGTTGCTC (site CGACTCCCTAC)”, the “recombinant barcode read abundance (log10)” value was 0.101.
In the case of “GTCAAGTCTTGGGTTCTAACCTGTTGCTC (site GTCAAGTCTGA)”, the “recombinant barcode read abundance (log10)” value is reported as 0.694.
For “GTCAATTCTTGGGTTCTAACCTGTTGCCT (site GACACTTCTAG)”, the “recombinant barcode read abundance (log10)” value was 0.109.
For “GTCAATTCTTGGGTTCTAACCTGTTGCCT (site GTCAATTCTAG)”, the “recombinant barcode read abundance (log10)” value was 0.684.
For “GTCACAACTTGGGTTCTAACCTGTTGCCG (site AGGTTTGCTAA)”, the “recombinant barcode read abundance (log10)” value was 0.056.
With “GTCACAACTTGGGTTCTAACCTGTTGCCG (site GTCACAACTCG)” the “recombinant barcode read abundance (log10)” value was 0.339.
For “GTCACAGCTTGGGTTCTAACCTGTTGCCT (site GTCAAAGCTTG)”, the “recombinant barcode read abundance (log10)” value was 0.0492.
With “GTCACAGCTTGGGTTCTAACCTGTTGCCT (site GTCACAGCTAG)” the “recombinant barcode read abundance (log10)” value was 1.23.
In the case of “GTCAGATCTTGGGTTCTAACCTGTTGCTT (site GTCAGATCTAA)”, the “recombinant barcode read abundance (log10)” value is reported as 0.398.
For “GTCAGATCTTGGGTTCTAACCTGTTGCTT (site TCGTTCGCTCG)”, the “recombinant barcode read abundance (log10)” value was 0.0896.
In the case of “GTCAGGGCTTGGGTTCTAACCTGTTGCCT (site GTCAGGGCTAG)”, the “recombinant barcode read abundance (log10)” value is reported as 0.275.
With “GTCAGGGCTTGGGTTCTAACCTGTTGCCT (site GTCATGGCTAG)” the “recombinant barcode read abundance (log10)” value was 0.197.
In the case of “GTCATGCCTTGGGTTCTAACCTGTTGCGT (site GTCATGCCTAC)”, the “recombinant barcode read abundance (log10)” value is reported as 1.58.
In the case of “GTCATGCCTTGGGTTCTAACCTGTTGCGT (site GTCTTCCCTAC)”, the “recombinant barcode read abundance (log10)” value is reported as 0.125.
In the case of “GTCATGTCTTGGGTTCTAACCTGTTGCTG (site ACAGGTCCTTC)”, the “recombinant barcode read abundance (log10)” value is reported as 0.0358.
In the case of “GTCATGTCTTGGGTTCTAACCTGTTGCTG (site GTCATGTCTCA)”, the “recombinant barcode read abundance (log10)” value is reported as 1.5.
With “GTCCAGCCTTGGGTTCTAACCTGTTGCAT (site CTCTAGCCTAT)” the “recombinant barcode read abundance (log10)” value was 0.0778.
For “GTCCAGCCTTGGGTTCTAACCTGTTGCAT (site GTCCAGCCTAT)”, the “recombinant barcode read abundance (log10)” value was 1.98.
For “GTCCCTCCTTGGGTTCTAACCTGTTGCAT (site GTCCCTCCTAA)”, the “recombinant barcode read abundance (log10)” value was 0.746.
In the case of “GTCCCTCCTTGGGTTCTAACCTGTTGCAT (site GTCCCTCCTAC)”, the “recombinant barcode read abundance (log10)” value is reported as 0.405.
In the case of “GTCCCTCCTTGGGTTCTAACCTGTTGCAT (site GTCCCTCCTAG)”, the “recombinant barcode read abundance (log10)” value is reported as 0.16.
For “GTCCCTCCTTGGGTTCTAACCTGTTGCAT (site GTCCCTCCTAT)”, the “recombinant barcode read abundance (log10)” value was 1.96.
In the case of “GTCCCTCCTTGGGTTCTAACCTGTTGCTT (site GTCCCTCCTAA)”, the “recombinant barcode read abundance (log10)” value is reported as 0.94.
For “GTCCCTCCTTGGGTTCTAACCTGTTGCTT (site GTCCCTCCTAC)”, the “recombinant barcode read abundance (log10)” value was 0.104.
For “GTCCCTCCTTGGGTTCTAACCTGTTGCTT (site GTCCCTCCTAG)”, the “recombinant barcode read abundance (log10)” value was 0.201.
With “GTCCCTCCTTGGGTTCTAACCTGTTGCTT (site GTCCCTCCTAT)” the “recombinant barcode read abundance (log10)” value was 0.453.
For “GTCCGTCCTTGGGTTCTAACCTGTTGCAT (site GTCCGTCCTAA)”, the “recombinant barcode read abundance (log10)” value was 0.178.
With “GTCCGTCCTTGGGTTCTAACCTGTTGCAT (site GTCCGTCCTAC)” the “recombinant barcode read abundance (log10)” value was 0.688.
In the case of “GTCCGTCCTTGGGTTCTAACCTGTTGCAT (site GTCCGTCCTAG)”, the “recombinant barcode read abundance (log10)” value is reported as 0.129.
For “GTCCGTCCTTGGGTTCTAACCTGTTGCAT (site GTCCGTCCTAT)”, the “recombinant barcode read abundance (log10)” value was 1.77.
In the case of “GTCCTAACTTGGGTTCTAACCTGTTGCAC (site GTCCTAACTGT)”, the “recombinant barcode read abundance (log10)” value is reported as 2.08.
In the case of “GTCCTAACTTGGGTTCTAACCTGTTGCAC (site GTCCTACCTTT)”, the “recombinant barcode read abundance (log10)” value is reported as 0.0749.
For “GTCCTACCTTGGGTTCTAACCTGTTGCCT (site GTCATACCTAG)”, the “recombinant barcode read abundance (log10)” value was 0.0144.
With “GTCCTACCTTGGGTTCTAACCTGTTGCCT (site GTCCTACCTAG)” the “recombinant barcode read abundance (log10)” value was 1.54.
For “GTCCTACCTTGGGTTCTAACCTGTTGCCT (site GTCGTACCTAG)”, the “recombinant barcode read abundance (log10)” value was 0.503.
In the case of “GTCCTACCTTGGGTTCTAACCTGTTGCCT (site GTCTTACCTAG)”, the “recombinant barcode read abundance (log10)” value is reported as 0.588.
In the case of “GTCGACACTTGGGTTCTAACCTGTTGCCT (site GTCGACACTAG)”, the “recombinant barcode read abundance (log10)” value is reported as 1.5.
For “GTCGACACTTGGGTTCTAACCTGTTGCCT (site GTCGAGTCTAG)”, the “recombinant barcode read abundance (log10)” value was 0.126.
For “GTCGACGCTTGGGTTCTAACCTGTTGCCT (site GTCGACCCTAG)”, the “recombinant barcode read abundance (log10)” value was 0.158.
With “GTCGACGCTTGGGTTCTAACCTGTTGCCT (site GTCGACGCTAG)” the “recombinant barcode read abundance (log10)” value was 0.635.
With “GTCGCCACTTGGGTTCTAACCTGTTGCCT (site GTAGCCACTAG)” the “recombinant barcode read abundance (log10)” value was 0.239.
For “GTCGCCACTTGGGTTCTAACCTGTTGCCT (site GTCGCCACTAG)”, the “recombinant barcode read abundance (log10)” value was 0.0549.
With “GTCGCCACTTGGGTTCTAACCTGTTGCCT (site GTGGCCACTAG)” the “recombinant barcode read abundance (log10)” value was 0.159.
For “GTCGCCACTTGGGTTCTAACCTGTTGCCT (site GTTGCCACTAG)”, the “recombinant barcode read abundance (log10)” value was 0.196.
In the case of “GTCGCGGCTTGGGTTCTAACCTGTTGCCT (site GTCGCGACTAG)”, the “recombinant barcode read abundance (log10)” value is reported as 0.454.
With “GTCGCGGCTTGGGTTCTAACCTGTTGCCT (site GTCGCGCCTAG)” the “recombinant barcode read abundance (log10)” value was 0.182.
For “GTCGCGGCTTGGGTTCTAACCTGTTGCCT (site GTCGCGGCTAG)”, the “recombinant barcode read abundance (log10)” value was 0.418.
In the case of “GTCGCGGCTTGGGTTCTAACCTGTTGCCT (site GTCGCGTCTAG)”, the “recombinant barcode read abundance (log10)” value is reported as 0.324.
In the case of “GTCGCGTCTTGGGTTCTAACCTGTTGCCT (site GTCGCGACTAG)”, the “recombinant barcode read abundance (log10)” value is reported as 0.198.
In the case of “GTCGCGTCTTGGGTTCTAACCTGTTGCCT (site GTCGCGCCTAG)”, the “recombinant barcode read abundance (log10)” value is reported as 0.738.
With “GTCGCGTCTTGGGTTCTAACCTGTTGCCT (site GTCGCGGCTAG)” the “recombinant barcode read abundance (log10)” value was 0.392.
For “GTCGCGTCTTGGGTTCTAACCTGTTGCCT (site GTCGCGTCTAG)”, the “recombinant barcode read abundance (log10)” value was 0.328.
With “GTCGGAGCTTGGGTTCTAACCTGTTGCCG (site GTCGGAGCTCA)” the “recombinant barcode read abundance (log10)” value was 0.0109.
With “GTCGGAGCTTGGGTTCTAACCTGTTGCCG (site GTCGGAGCTCC)” the “recombinant barcode read abundance (log10)” value was 0.152.
For “GTCGGAGCTTGGGTTCTAACCTGTTGCCG (site GTCGGAGCTCG)”, the “recombinant barcode read abundance (log10)” value was 0.218.
In the case of “GTCGGAGCTTGGGTTCTAACCTGTTGCCG (site GTCGGAGCTCT)”, the “recombinant barcode read abundance (log10)” value is reported as 0.435.
For “GTCGGAGCTTGGGTTCTAACCTGTTGCGG (site GTCGGAGCTCA)”, the “recombinant barcode read abundance (log10)” value was 0.282.
With “GTCGGAGCTTGGGTTCTAACCTGTTGCGG (site GTCGGAGCTCC)” the “recombinant barcode read abundance (log10)” value was 1.97.
With “GTCGGAGCTTGGGTTCTAACCTGTTGCGG (site GTCGGAGCTCG)” the “recombinant barcode read abundance (log10)” value was 0.0393.
